Measurements as given in patent publication US20060063755A1, “Loxapine analogs and methods of use thereof” (priority 2004, published 2006).

Tests used:
alpha 1 receptors = assay: Alpha 1 receptor binding assay; settings: read-out: Ki Alpha1
Description: (§1) Binding assays were performed using the disclosed sleep-inducing agents and derivatives selected from those listed in Table 1 in competitive binding assays with known standards for the H1 histamine receptor, and the M1, M2, and M3 muscarinic receptors, alpha 1 and alpha 2 receptors, and D1 and D2 receptors.

Dopamine, D1 = Dopamine, D1 (Homo sapiens, UniProt P21728); assay: Dopamine D1 (human recombinant) binding assay
Chain of Dopamine, D1 (P21728 whole entry): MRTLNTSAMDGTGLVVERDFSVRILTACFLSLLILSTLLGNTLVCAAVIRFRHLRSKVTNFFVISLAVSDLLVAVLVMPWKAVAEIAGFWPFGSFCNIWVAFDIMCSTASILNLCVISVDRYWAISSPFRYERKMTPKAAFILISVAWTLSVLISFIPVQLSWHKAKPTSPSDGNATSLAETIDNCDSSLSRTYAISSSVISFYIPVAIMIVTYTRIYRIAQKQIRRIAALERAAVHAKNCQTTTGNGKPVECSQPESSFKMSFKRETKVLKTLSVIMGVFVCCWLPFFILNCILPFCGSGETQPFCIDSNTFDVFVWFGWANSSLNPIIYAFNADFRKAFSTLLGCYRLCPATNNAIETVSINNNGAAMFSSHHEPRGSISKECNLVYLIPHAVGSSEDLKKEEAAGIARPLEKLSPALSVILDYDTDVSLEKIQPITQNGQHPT
Description: as §1
Dopamine, D1 (human recombinant) binding assay was performed according to published procedures. See, e.g., Jarvie, et al. J. Recept Res., 13(1-4): 573-90 (1993); and Billard, et al. Life Sciences, 35(18): 1885-93 (1984), with modifications

alpha 2 receptors = assay: Alpha 2 receptor binding assay; settings: read-out: Ki Alpha2
Description: as §1

M3 muscarinic receptor = biological target: T1, M3 muscarinic receptor (Homo sapiens, UniProt P20309); assay: M3 binding assay, [3H]-scopolamine N-methyl chloride, CHO cells; settings: human recombinant
T1 construct: purchased PerkinElmer, Inc., Wellesley, Mass; host or cells: CHO cells
T1 sequence (P20309 whole entry): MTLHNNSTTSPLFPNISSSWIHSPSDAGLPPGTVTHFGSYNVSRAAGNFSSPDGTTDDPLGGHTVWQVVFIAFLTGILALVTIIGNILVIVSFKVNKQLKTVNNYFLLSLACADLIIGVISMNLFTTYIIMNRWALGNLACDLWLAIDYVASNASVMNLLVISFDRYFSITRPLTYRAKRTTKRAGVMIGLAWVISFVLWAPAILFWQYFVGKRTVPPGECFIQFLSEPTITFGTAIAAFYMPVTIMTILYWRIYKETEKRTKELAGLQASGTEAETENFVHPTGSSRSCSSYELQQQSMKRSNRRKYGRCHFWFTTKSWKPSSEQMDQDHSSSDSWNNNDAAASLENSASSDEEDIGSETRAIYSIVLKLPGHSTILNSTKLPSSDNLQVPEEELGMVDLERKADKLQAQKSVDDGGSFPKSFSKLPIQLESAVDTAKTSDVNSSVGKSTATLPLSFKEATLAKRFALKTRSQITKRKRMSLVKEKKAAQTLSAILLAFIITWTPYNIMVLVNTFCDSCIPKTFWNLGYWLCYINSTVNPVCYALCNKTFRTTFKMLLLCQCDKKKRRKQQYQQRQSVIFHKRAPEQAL

D2 receptors = D2 receptors (Homo sapiens, UniProt P14416); assay: Dopamine D2 binding assay (human)
Chain of D2 receptors (P14416 whole entry): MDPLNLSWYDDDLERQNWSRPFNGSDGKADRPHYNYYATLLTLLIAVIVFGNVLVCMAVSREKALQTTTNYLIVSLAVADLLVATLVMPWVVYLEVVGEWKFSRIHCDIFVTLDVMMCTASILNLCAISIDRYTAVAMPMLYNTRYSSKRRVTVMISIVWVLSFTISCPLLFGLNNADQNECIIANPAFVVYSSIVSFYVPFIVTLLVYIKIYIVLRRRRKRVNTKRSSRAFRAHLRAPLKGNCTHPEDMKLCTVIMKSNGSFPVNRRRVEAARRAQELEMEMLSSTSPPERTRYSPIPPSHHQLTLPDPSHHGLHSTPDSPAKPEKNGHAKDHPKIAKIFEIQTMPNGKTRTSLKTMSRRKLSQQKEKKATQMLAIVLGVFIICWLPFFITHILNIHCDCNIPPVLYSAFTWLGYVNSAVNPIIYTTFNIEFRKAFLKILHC
Description: Binding assays were performed using the disclosed sleep-inducing agents and derivatives selected from those listed in Table 1 in competitive binding assays with known standards for the H1 histamine receptor, and the M1, M2, and M3 muscarinic receptors, alpha 1 and alpha 2 receptors, and D1 and D2 receptors. […]

hERG channel = hERG channel (Homo sapiens, UniProt Q12809); assay: hERG channel current block, whole cell recording in HEK293 cells; assay type: cell-based; settings: HEK293 cells expressing hERG
Chain of hERG channel (Q12809 whole entry): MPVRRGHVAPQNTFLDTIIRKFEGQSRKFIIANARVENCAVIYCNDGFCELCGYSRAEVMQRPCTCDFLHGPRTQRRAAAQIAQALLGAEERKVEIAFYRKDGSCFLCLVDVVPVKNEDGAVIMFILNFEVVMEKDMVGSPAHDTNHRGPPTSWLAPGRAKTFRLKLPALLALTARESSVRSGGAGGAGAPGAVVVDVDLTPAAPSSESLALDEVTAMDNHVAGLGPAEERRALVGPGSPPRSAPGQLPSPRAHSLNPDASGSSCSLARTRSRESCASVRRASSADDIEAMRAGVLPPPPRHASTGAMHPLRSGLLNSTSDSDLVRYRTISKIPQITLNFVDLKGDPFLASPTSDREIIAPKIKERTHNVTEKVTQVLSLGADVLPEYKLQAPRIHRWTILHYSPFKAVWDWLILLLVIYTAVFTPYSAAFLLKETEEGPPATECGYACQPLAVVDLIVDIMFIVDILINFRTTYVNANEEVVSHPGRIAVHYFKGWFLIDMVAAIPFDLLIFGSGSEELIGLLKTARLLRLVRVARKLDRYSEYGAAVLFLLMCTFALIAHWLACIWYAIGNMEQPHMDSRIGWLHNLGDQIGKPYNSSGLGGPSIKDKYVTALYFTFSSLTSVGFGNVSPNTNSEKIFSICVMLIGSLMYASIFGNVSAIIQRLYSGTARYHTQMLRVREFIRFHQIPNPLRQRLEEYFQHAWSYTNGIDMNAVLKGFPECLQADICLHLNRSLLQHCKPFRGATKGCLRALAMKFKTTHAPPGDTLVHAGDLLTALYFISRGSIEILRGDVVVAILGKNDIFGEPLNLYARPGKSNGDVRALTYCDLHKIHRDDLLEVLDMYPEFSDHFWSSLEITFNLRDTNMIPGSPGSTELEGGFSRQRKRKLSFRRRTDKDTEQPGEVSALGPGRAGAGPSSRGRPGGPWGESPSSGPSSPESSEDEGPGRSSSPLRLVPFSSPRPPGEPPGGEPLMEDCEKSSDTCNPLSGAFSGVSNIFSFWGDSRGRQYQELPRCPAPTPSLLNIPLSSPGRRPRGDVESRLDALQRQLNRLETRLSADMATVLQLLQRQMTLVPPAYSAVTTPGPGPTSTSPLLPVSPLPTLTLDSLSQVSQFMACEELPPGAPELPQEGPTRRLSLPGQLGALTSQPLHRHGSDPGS
Description: Other in vitro selection criteria for loxapine analogs of the invention includes hERG binding.
(Brown and Rampe (2000)).
In one embodiment of the HERG assay, the positive control (i.e., reference compound) is terfenadine (Sigma, St. Louis Mo.), which has been shown, at a concentration of 60 nM, to block HERG current by approximately 75%. Test compounds are delivered in HEPES-buffered physiological saline (HB-PS)+0.1% dimethyl sulfoxide (DMSO).
Clin. Exp. Allergy 29 Suppl 3, 174-181.
If the final DMSO concentration must be greater than 0.3%, to reach a specified test article concentration, a separate vehicle control test with an n>2 was performed at the highest final DMSO concentration.
Each cell acted as its own control. […] One concentration of the positive control article (60 nM terfenadine) was applied to two cells (n≧2).

H1 histamine receptor = biological target: T2, H1 histamine receptor (Bos taurus, UniProt P30546); assay: H1 competitive binding assay, [3H]pyrilamine, bovine cerebellar membranes; settings: bovine cerebellar membrane
T2 construct: the receptors were obtained from bovine cerebellar membrane tissue; from tissue; host or cells: bovine cerebellar membranes
T2 sequence (P30546 whole entry): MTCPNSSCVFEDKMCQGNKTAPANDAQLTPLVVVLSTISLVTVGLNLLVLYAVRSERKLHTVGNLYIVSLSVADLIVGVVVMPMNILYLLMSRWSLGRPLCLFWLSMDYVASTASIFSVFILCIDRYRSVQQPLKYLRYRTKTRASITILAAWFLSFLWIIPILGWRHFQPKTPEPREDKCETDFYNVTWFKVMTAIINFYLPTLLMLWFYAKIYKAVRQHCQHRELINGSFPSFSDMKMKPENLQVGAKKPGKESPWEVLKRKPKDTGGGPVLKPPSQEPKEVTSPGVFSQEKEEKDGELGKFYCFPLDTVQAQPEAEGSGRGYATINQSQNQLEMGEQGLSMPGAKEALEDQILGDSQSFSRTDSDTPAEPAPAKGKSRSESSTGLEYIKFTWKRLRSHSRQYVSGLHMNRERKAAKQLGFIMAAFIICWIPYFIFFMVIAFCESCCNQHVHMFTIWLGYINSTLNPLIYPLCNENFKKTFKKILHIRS

M2 muscarinic receptor = biological target: T3, M2 muscarinic receptor (Homo sapiens, UniProt P08172); assay: M2 binding assay, [3H]-scopolamine N-methyl chloride, CHO cells; settings: human recombinant
T3 construct: purchased PerkinElmer, Inc., Wellesley, Mass; host or cells: CHO cells
T3 sequence (P08172 1-466): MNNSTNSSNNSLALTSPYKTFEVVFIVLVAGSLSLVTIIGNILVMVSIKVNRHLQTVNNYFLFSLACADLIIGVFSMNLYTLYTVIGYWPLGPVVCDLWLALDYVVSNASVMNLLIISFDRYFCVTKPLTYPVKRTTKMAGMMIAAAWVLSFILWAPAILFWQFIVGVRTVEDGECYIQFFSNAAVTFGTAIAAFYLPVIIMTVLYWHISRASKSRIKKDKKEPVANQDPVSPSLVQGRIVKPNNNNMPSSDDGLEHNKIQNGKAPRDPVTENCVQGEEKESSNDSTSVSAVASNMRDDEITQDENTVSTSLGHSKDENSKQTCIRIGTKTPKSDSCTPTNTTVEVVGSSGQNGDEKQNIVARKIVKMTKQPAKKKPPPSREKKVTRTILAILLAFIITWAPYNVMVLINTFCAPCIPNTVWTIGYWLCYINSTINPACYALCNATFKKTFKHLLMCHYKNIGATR

M1 muscarinic receptor = biological target: T4, M1 muscarinic receptor (Homo sapiens, UniProt P11229); assay: M1 binding assay, [3H]-scopolamine N-methyl chloride, CHO cells; settings: human recombinant
T4 construct: purchased PerkinElmer, Inc., Wellesley, Mass; host or cells: CHO cells
T4 sequence (P11229 1-460): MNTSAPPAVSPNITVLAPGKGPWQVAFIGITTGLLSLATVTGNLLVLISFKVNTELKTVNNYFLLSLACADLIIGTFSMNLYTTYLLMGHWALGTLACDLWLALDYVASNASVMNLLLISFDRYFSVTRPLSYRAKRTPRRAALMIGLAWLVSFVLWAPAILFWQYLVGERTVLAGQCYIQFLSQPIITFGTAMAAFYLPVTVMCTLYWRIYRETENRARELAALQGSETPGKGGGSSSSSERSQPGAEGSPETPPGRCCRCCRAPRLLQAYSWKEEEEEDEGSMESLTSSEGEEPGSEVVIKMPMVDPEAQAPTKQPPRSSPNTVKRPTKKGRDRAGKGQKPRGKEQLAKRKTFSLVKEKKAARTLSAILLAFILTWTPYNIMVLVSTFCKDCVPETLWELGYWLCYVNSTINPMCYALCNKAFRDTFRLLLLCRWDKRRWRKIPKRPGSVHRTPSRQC

Structure (SMILES)	Ki (alpha 1 receptors) [µM]	Ki (Dopamine, D1) [µM]	Ki (alpha 2 receptors) [µM]	Ki (M3 muscarinic receptor) [µM]	Ki (D2 receptors) [µM]	hERG at 10 micromolar (% blocking of the hERG channel) (hERG channel) [%]	Ki (H1 histamine receptor) [µM]	Ki (M2 muscarinic receptor) [µM]	Ki (M1 muscarinic receptor) [µM]
Cc1ccc2c(c1)C(N1CCN(CC(C)(C)C(=O)O)CC1)=Nc1cc(Br)ccc1O2 [Compound 50]	0.595	1.14	1.95	> 10	0.36	45.00	0.0318	> 10	> 10
Cc1ccc2c(c1)N=C(N1CCN(CC(C)(C)C(=O)O)CC1)c1cc(C)ccc1O2 [Compound 20]	1.96	1.93	> 10	> 10	1.59	5.30	0.0768	> 10	> 10
CC(C)(CN1CCN(C2=Nc3ccccc3Oc3ccc(Cl)cc32)CC1)C(=O)O [Compound 5]	3.02	4.52	> 10	> 10	1.61	36	0.0239	> 10	> 10
O=C(O)C1(CN2CCN(C3=Nc4ccccc4Oc4ccc(Cl)cc43)CC2)CC1 [Compound 7]	> 10	1.73	> 10	> 10	0.222	42.8	0.217	> 10	> 10
COc1ccc2c(c1)C(N1CCN(CC(C)(C)C(=O)O)CC1)=Nc1cc(Br)ccc1O2 [Compound 51]	0.148	1.04	0.966	> 10	0.17	32	0.0278	> 10	> 10
CC(C)(CCN1CCN(C2=Nc3ccccc3Oc3ccccc32)CC1)C(=O)O [Compound 3]	> 10	4.92	> 10	> 10	1.19	3.8	0.00733	> 10	> 10
Cc1ccc2c(c1)N=C(N1CCN(CC(C)(C)C(=O)O)CC1)c1ccccc1O2 [Compound 19]	> 10	6.8	> 10	> 10	3.16	9.90	0.0395	> 10	> 10
COc1ccc2c(c1)N=C(N1CCN(CC(C)(C)C(=O)O)CC1)c1ccccc1O2 [Compound 21]	> 10	> 10	> 10	> 10	> 10	0	0.0572	> 10	> 10
Cc1ccc2c(c1)Oc1ccccc1C(N1CCN(CC(C)(C)C(=O)O)CC1)=N2 [Compound 30]	> 10	5.06	> 10	> 10	> 10	4.50	0.0906	> 10	> 10
O=C(O)C1(CN2CCN(C3=Nc4ccccc4Oc4ccccc43)CC2)CC1 [Compound 2]	> 10	> 10	> 10	> 10	> 10	19	0.0514	> 10	> 10
COc1ccc2c(c1)N=C(N1CCN(CC(C)(C)C(=O)O)CC1)c1cc(OC)ccc1O2 [Compound 23]	> 10	> 10	> 10	> 10	> 10	8.90	0.135	> 10	> 10
COc1ccc2c(c1)Oc1ccccc1N=C2N1CCN(CC(C)(C)C(=O)O)CC1 [Compound 39]	> 10	> 10	> 10	> 10	> 10	61.40	0.0987	> 10	> 10
COc1ccc2c(c1)C(N1CCN(CC(C)(C)C(=O)O)CC1)=Nc1ccccc1O2 [Compound 12]	> 10	5.22	> 10	> 10	1.24	7.20	0.137	> 10	> 10
O=C(O)C1(CN2CCN(C3=Nc4ccccc4Oc4ccc(Br)cc43)CC2)CC1 [Compound 9]	> 10	1.12	> 10	> 10	0.0533	59	0.036	> 10	> 10
COc1ccc2c(c1)Oc1ccccc1C(N1CCN(CC(C)(C)C(=O)O)CC1)=N2 [Compound 32]	> 10	> 10	> 10	> 10	> 10	1.60	3.77	> 10	> 10
